Square brackets hold non-standard residues; d marks the D form. Peptide text beside a SMILES is read from it. * marks the point of attachment. Acryloyl(3-(3-pyridyl),E) = O=C(/C=C/c1cccnc1)*; NMeF = CN[C@@H](Cc1ccccc1)C(=O)O; NMeD = CN[C@@H](CC(=O)O)C(=O)O; Boc = CC(C)(C)OC(=O)*
Target: Gastrin/cholecystokinin type B receptor (Cavia porcellus)
Experiment: In vitro binding for half maximal inhibition of [125I]- cholecystokinin type B receptor in guinea pig cortex

With `CN(C(=O)[C@H](CCCCNC(=O)/C=C/c1cccnc1)NC(=O)[C@H](Cc1c[nH]c2ccccc12)NC(=O)OC(C)(C)C)[C@@H](CC(=O)O)C(=O)N(C)[C@@H](Cc1ccccc1)C(N)=O` [(S)-3-{[(S)-2-[2-tert-Butoxycarbonylamino-3-(1H-indol-3-yl)-propionylamino]-6-((E)-3-pyridin-3-yl-acryloylamino)-hexanoyl]-methyl-amino}-N-((S)-1-carbamoyl-2-phenyl-ethyl)-N-methyl-succinamic acid] (Boc-WK(Acryloyl(3-(3-pyridyl),E))[NMeD][NMeF]-NH2) the IC50 was 22.7 µM.

Source: BindingDB's records for doi:10.1021/jm00037a006 (Abbott Laboratories, 1994)
